Source: patent US9750809B2, “Cancer treatment” (MOREX DEVELOPMENT PARTNERS LLP, priority 2012, dated 2017)

How the values were obtained:
[1] = mouse, in vivo
Method: Direct current plasma-atomic emission spectroscopy [DCP-AES] (ARL/Fisons Model SS-7) was used (detection limit: 0.1 μg B/mL) to determine boron concentrations in tissues of individual mice. Samples (50-130 mg) were digested at 60° C. with sulfuric acid:nitric acid (1:1). Triton X-100 and water were added to give final concentrations of ˜50 mg tissue/mL, 15% total acid v/v and 5% Triton X-100 v/v. […] It is known that the ether linkages between the porphyrin and carborane cages remain intact in vivo.

[2] = system: SCCVII squamous cell carcinomas
Method: Mice were euthanized when the tumour volume reached 500 mm^3; and
SCCVII murine squamous cell carcinoma cells were cultured in D-MEM enriched with 10% fetal bovine serum, 1% penicillin/streptomycin and 1% L-glutamine. Only passages 1-3 were used to initiate tumours. Cells (2×10^5 in 0.05 mL of medium) were then implanted sc into the left thighs of 20-25 g female C3H mice (Charles River Laboratories, Wilmington, Mass.).
Due to the large number of animals to be dosed and irradiated, it was necessary to split the animals into two equally sized groups: Groups A and B. Animals in each Group A were injected on day 7 after tumour implantation, while animals in each Group B were injected on day 8 post tumour implantation.
The animals in Group A were irradiated 8 days, and those in Groups B were irradiated 9 days after tumour implantation. Mice were anesthetized (sodium pentobarbital, ˜60 μg/g i.p.) and positioned for irradiation with the tumour-bearing leg extended across a 2-cm diameter collimated irradiation port. Tumours were irradiated using a single dose fraction of 32 gy at a dose-rate of 2.0 Gy/min using a Philips RT-100 set, operating at 100 kVp and 8 mA.
Tumours were measured 2-3 times per week and the mice were killed humanely when the calculated tumour volume (x^2y/2, where x is the shorter surface dimension) exceeded 500 mm^3.
Dosimetry for X-irradiation was carried out using a thimble ionization chamber applying the 1996 IPEB code of practice.

[3] = 150 mg/kg MTL005 + 32 Gy vs 32 Gy alone
[4] = 150 mg/kg MTL005 i.p. one day prior to 32 Gy X-rays, 11 mice

copper meso-5,15-bis[3-[(1,2-dicarba-closo-dodecaboranyl)methoxy]phenyl]-meso-10,20-dinitroporphyrin [MTL005]
Retention of active sensitiser in the tumour after single administration [1]: still a significant concentration of active sensitiser in the tumour
Number of surviving mice compared with X-rays alone [2, 3]: higher
Tumour control compared with X-rays alone (Kaplan-Meier, FIG. 2) [2, 3]: greater tumour control
% Tumour control [2, 4]: 54.5%
Controlled tumours (volume of 0 mm^3), number of mice [2, 4]: 6
Mice alive at 62 days with observable tumours [2, 4]: 2
Number of controlled tumours compared to radiation alone ([2]; 32 Gy): doubled
